{
  "source": "patent US20240117417A1",
  "about": "“CELL ENGINEERING COMPOSITIONS AND METHODS USING FLUOROGENIC OLIGONUCLEOTIDE SIGNALING PROBES AND FLOW CYTOMETRY” (Secondcell Bio, LLC, priority 2021, published 2024)",
  "note": "Where a name gives a salt, the structure may show the parent alone.",
  "data": [
    {"system": "GABAA receptor ion channel subunit combinations α1β3γ2s, α2β3γ2s, α3β3γ2s or α5β3γ2s", "experiment": "HTS of LOPAC library on the panel of GABAA cell lines, fluorescent membrane potential cell-based assay", "conditions": "not given", "description": "(§1) Production of cell lines: Each gene of interest was subcloned into an independent mammalian expression vector containing a detection tag and drug selectable marker and transfected into HEK293T and CHO cells cultured using DMEM supplemented with 50 mL fetal bovine serum, a 4 mM L-Glutamine, 10 mM Hepes pH 7.4. After 1 to 3 days cells were transferred to fresh media containing mild selective pressure for 7 to 14 days. On the day of the experiment, each well of four to six 24-well tissue culture plates was plated with 200 ul to 400 ul of transfected cells at 1.25 to 2×10^6 cells/mL in serum-free media and exposed to differentially-labeled signaling probes that can hybridize with the expression products. For each well, 1.7 to 2.5 uL of each probe at a concentration of 2.5 to 5 uM was added to 50 uL of serum free media in tube A and 0.3 to 0.75 uL of transfection reagent, using Lipofectamine for HEK cells (Thermo Fisher 18324) and jetPEI for CHO (Polyplus Transfection 101) was added to tube B. The contents of tubes A and B were mixed and incubated at room temperature for 25 to 30 minutes prior to addition to the well. Following a 1 to 2 hour incubation at 37° C. in a tissue culture incubator, serum-free media was added to the well up to a total volume of 1 mL. The plates were spun at 2,000 RPM for 4 minutes. 750 uL of media was aspirated and replaced with 250 uL of fresh serum-free media. The cells were incubated for an additional 2 to 2.5 hours then used to isolate individual positive cells using Beckman Coulter Epic Altra or Becton Dickinson FACS Aria flow cytometers.\n(§2) Cell-based Assays: Functional testing using fluorescent cell-based assays in the absence of any antibiotic-mediated selectable pressure was performed over time (typically for at least 4 to 6 weeks) to identify inherently stable clones. Commonly available fluorescent membrane potential and calcium flux kits and reagents were used for fluorescent cell-based assays in 96-well and 384-well plates using the Molecular Devices FLIPR 3 and Hamamatsu FDSS 6000 plate readers as described (Shekdar 2011; Shekdar and Sawchuk 2012; Shekdar and Venkatachalan 2012, Shekdar 2017). Electrophysiology of ion channel cell lines was obtained using the Nanion Technologies Patchliner patch clamp system. The patch clamp recordings were conducted according to Nanion's standard procedure (Obergrussberger 2014). Currents were measured using the whole-cell configuration. The extracellular solution contained the following: 140 mM NaCl, 4 mM KCl, 1 mM MgCl2, 2 mM CaCl2), 5 mM glucose, 10 mM Hepes, pH 7.4 (adjusted with NaOH). The intracellular solution for sodium current recordings contained the following: 50 mM CsCl, 10 mM NaCl, 60 mM CsF, 20 mM EGTA, 10 mM Hepes, pH 7.2 (adjusted with CsOH). For transient transfection studies, Fugene 6 was used to transfect expression plasmid into cells cultured as above and cells were assayed three days post-transfection.", "values": [
      {"molecule": "C[C@]12CC[C@@H](O)C[C@@H]1CC[C@@H]1[C@@H]2CC[C@]2(C)C(=O)CC[C@@H]12", "note": "[Androsterone]", "HTS hit: activated at least one of the GABAA cell lines at least as much as GABA itself": "identified"},
      {"molecule": "CC(C)c1cccc(C(C)C)c1O", "note": "[Propofol]", "HTS hit: activated at least one of the GABAA cell lines at least as much as GABA itself": "activated at least one of the cell lines at least as much as GABA itself"}
    ]},
    {"system": "GABAA receptor ion channel subunit combinations α1β3γ2s, α2β3γ2s, α3β3γ2s or α5β3γ2s", "experiment": "HTS of LOPAC library on the panel of GABAA cell lines, fluorescent membrane potential cell-based assay", "conditions": "LOPAC (Sigma 1280) screen on panel of four GABAA cell lines", "description": "as §1, §2", "values": [
      {"molecule": "C[C@]12CC[C@@H](O)C[C@@H]1CC[C@@H]1[C@@H]2CC[C@]2(C)[C@@H](C(=O)CO)CC[C@@H]12", "note": "[3-alpha, 21-dihydroxy-5-alpha-pregnan-20-one]", "HTS hit: activated at least one of the GABAA cell lines at least as much as GABA itself": "activated at least one of the cell lines at least as much as GABA itself"},
      {"molecule": "CC(=O)[C@H]1CC[C@H]2[C@@H]3CC[C@H]4C[C@H](O)CC[C@]4(C)[C@H]3CC[C@]12C", "note": "[5-alpha-pegnan-3alpha-ol-20-one]", "HTS hit: activated at least one of the GABAA cell lines at least as much as GABA itself": "activated at least one of the cell lines at least as much as GABA itself"},
      {"molecule": "CC(=O)[C@H]1CC[C@H]2[C@@H]3CC[C@H]4C[C@H](O)CC[C@]4(C)[C@H]3C(=O)C[C@]12C", "note": "[5-alpha-pregnan-3alpha-ol-11,20-dione]", "HTS hit: activated at least one of the GABAA cell lines at least as much as GABA itself": "activated at least one of the cell lines at least as much as GABA itself"},
      {"molecule": "CN1C(=O)CCS(=O)(=O)C1c1ccc(Cl)cc1", "note": "(centres unmarked) [Chlormezanone]", "HTS hit: activated at least one of the GABAA cell lines at least as much as GABA itself": "identified"},
      {"molecule": "OCCN(CCO)c1nc(N2CCCCC2)c2nc(N(CCO)CCO)nc(N3CCCCC3)c2n1", "note": "[Dipyridamole]", "HTS hit: activated at least one of the GABAA cell lines at least as much as GABA itself": "identified"},
      {"molecule": "NCCCC(=O)O", "note": "[GABA]", "HTS hit: activated at least one of the GABAA cell lines at least as much as GABA itself": "activated at least one of the cell lines at least as much as GABA itself"},
      {"molecule": "COc1cc(/C=C(\\C#N)C(=O)c2ccc(O)c(O)c2)cc(I)c1O", "note": "[I-OMe-Tyrphostin AG 538]", "HTS hit: activated at least one of the GABAA cell lines at least as much as GABA itself": "identified"},
      {"molecule": "O=C(O)C1=CCNCC1", "note": "[Isoguvacine hydrochloride]", "HTS hit: activated at least one of the GABAA cell lines at least as much as GABA itself": "activated at least one of the cell lines at least as much as GABA itself"},
      {"molecule": "NCc1cc(=O)[nH]o1", "note": "[Muscimol hydrobromide]", "HTS hit: activated at least one of the GABAA cell lines at least as much as GABA itself": "activated at least one of the cell lines at least as much as GABA itself"},
      {"molecule": "O=C(Nc1ccc([N+](=O)[O-])cc1Cl)c1cc(Cl)ccc1O", "note": "[Niclosamide]", "HTS hit: activated at least one of the GABAA cell lines at least as much as GABA itself": "identified"},
      {"molecule": "O=S(=O)(O)C1CCNCC1", "note": "[Piperidine-4-sulphonic acid]", "HTS hit: activated at least one of the GABAA cell lines at least as much as GABA itself": "activated at least one of the cell lines at least as much as GABA itself"},
      {"molecule": "CCCCNc1c(C(=O)OCC)c(C)nc2c1cnn2CC", "note": "[Tracazolate]", "HTS hit: activated at least one of the GABAA cell lines at least as much as GABA itself": "activated at least one of the cell lines at least as much as GABA itself"},
      {"molecule": "CC(C)(C)c1cc(C=C(C#N)C#N)cc(C(C)(C)C)c1O", "note": "[Tyrphostin A9]", "HTS hit: activated at least one of the GABAA cell lines at least as much as GABA itself": "identified"},
      {"molecule": "Ivermectin", "HTS hit: activated at least one of the GABAA cell lines at least as much as GABA itself": "identified"}
    ]},
    {"system": "CFTR", "experiment": "functional cell-based assay of the CFTR cell line (response to Forskolin)", "conditions": "FIG. 22A left panel, read-out: EC50 value, dose-response curve for the CFTR cell line", "description": "Production of cell lines: Each gene of interest was subcloned into an independent mammalian expression vector containing a detection tag and drug selectable marker and transfected into HEK293T and CHO cells cultured using DMEM supplemented with 50 mL fetal bovine serum, a 4 mM L-Glutamine, 10 mM Hepes pH 7.4. After 1 to 3 days cells were transferred to fresh media containing mild selective pressure for 7 to 14 days. On the day of the experiment, each well of four to six 24-well tissue culture plates was plated with 200 ul to 400 ul of transfected cells at 1.25 to 2×10^6 cells/mL in serum-free media and exposed to differentially-labeled signaling probes that can hybridize with the expression products. […]\n(§3) Cell-based Assays: Functional testing using fluorescent cell-based assays in the absence of any antibiotic-mediated selectable pressure was performed over time (typically for at least 4 to 6 weeks) to identify inherently stable clones. Commonly available fluorescent membrane potential and calcium flux kits and reagents were used for fluorescent cell-based assays in 96-well and 384-well plates using the Molecular Devices FLIPR 3 and Hamamatsu FDSS 6000 plate readers as described (Shekdar 2011; Shekdar and Sawchuk 2012; Shekdar and Venkatachalan 2012, Shekdar 2017). […] Currents were measured using the whole-cell configuration. […]", "units": {"EC50": "nM"}, "values": [
      {"molecule": "C=C[C@@]1(C)CC(=O)[C@]2(O)[C@@]3(C)[C@@H](O)CCC(C)(C)[C@@H]3[C@H](O)[C@H](OC(C)=O)[C@@]2(C)O1", "note": "[Forskolin]", "EC50": 256}
    ]},
    {"molecular_target": "T1, αβγ-ENaC (Homo sapiens, UniProt P37088+P51168+P51170)", "T1 construct": "expressed in transfected cells", "T1 sequence (P51170 whole entry)": "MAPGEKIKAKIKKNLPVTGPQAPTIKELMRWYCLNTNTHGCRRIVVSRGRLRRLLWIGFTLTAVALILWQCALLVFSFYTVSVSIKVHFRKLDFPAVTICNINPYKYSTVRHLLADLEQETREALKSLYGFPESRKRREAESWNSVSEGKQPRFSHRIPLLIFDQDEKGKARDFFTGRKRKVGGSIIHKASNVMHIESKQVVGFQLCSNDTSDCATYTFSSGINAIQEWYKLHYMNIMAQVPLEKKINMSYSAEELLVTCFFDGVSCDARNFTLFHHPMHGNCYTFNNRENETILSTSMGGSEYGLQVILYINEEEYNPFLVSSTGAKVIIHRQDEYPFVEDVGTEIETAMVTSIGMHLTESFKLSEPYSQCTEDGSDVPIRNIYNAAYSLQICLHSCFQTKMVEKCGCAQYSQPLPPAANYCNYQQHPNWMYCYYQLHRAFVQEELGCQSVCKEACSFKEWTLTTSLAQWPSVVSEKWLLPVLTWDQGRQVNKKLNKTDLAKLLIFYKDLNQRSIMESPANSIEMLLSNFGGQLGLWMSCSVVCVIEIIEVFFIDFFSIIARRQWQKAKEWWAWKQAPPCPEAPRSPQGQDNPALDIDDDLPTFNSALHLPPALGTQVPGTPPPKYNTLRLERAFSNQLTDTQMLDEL", "T1 sequence (P51168 whole entry)": "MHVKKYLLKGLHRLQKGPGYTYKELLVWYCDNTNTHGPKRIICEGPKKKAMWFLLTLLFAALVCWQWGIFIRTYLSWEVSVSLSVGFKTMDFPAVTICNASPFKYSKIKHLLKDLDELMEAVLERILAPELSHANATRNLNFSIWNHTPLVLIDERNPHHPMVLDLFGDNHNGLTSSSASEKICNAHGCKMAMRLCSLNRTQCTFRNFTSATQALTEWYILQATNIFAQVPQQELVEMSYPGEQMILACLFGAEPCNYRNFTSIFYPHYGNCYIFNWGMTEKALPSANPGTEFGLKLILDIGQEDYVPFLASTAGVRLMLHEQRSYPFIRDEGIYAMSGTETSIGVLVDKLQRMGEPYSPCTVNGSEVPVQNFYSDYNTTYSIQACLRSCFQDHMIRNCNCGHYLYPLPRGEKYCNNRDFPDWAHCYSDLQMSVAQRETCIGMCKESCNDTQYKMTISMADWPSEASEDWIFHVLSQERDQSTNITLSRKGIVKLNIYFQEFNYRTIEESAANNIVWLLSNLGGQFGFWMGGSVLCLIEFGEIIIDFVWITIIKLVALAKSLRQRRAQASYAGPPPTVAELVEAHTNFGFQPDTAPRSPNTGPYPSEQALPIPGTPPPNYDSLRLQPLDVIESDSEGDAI", "T1 sequence (P37088 whole entry)": "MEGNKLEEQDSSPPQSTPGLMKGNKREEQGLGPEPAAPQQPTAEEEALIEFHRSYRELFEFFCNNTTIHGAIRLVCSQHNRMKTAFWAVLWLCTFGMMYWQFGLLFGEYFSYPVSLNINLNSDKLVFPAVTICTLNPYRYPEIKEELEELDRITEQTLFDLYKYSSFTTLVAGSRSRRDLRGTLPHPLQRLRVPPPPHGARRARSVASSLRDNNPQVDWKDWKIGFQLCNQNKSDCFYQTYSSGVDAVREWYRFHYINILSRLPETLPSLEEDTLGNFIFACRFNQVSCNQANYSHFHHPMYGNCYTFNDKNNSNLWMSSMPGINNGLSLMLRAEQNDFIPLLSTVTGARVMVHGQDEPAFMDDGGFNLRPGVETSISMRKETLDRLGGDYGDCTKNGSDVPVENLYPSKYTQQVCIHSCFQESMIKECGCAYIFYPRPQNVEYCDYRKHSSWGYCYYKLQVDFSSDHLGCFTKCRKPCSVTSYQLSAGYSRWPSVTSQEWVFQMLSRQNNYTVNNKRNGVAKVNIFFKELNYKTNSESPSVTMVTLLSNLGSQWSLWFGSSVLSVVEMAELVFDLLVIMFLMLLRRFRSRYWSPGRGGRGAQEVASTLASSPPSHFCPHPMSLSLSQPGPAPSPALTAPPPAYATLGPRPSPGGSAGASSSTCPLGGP", "experiment": "cell-based assay selective for αβγ-ENaC activity (response to sodium increase)", "conditions": "75 mM increase in sodium concentration, FIG. 23B right panel", "description": "Production of cell lines: Each gene of interest was subcloned into an independent mammalian expression vector containing a detection tag and drug selectable marker and transfected into HEK293T and CHO cells cultured using DMEM supplemented with 50 mL fetal bovine serum, a 4 mM L-Glutamine, 10 mM Hepes pH 7.4. After 1 to 3 days cells were transferred to fresh media containing mild selective pressure for 7 to 14 days. […]\nas §3\n(§4) Finally, Chromovert® Technology was used to create a cell line for ENaC. […] One potentiator identified during HTS of proteolyzed ENaC was assessed in human sensory studies where it was confirmed to enhance the salty taste of sodium chloride, as shown in FIG. 23E.", "values": [
      {"molecule": "N=C(N)NC(=O)c1nc(Cl)c(N)nc1N", "note": "[amiloride]", "effect on the response of the αβγ-ENaC cell line to a sodium increase": "inhibition of the response to a 75 mM increase in sodium concentration"}
    ]},
    {"system": "proteolyzed αβγ-ENaC", "experiment": "HTS of a compound library against proteolyzed ENaC cell line", "type": "cell-based", "conditions": "not given", "description": "as §2, with “The intracellular solution for sodium current recordings contained the following: 50 mM CsCl, 10 mM NaCl, 60 mM CsF, 20 mM EGTA, 10 mM Hepes, pH 7.2 (adjusted with CsOH). For transient transfection studies, Fugene 6 was used to transfect expression plasmid into cells cultured as above and cells were assayed three days post-transfection.” left out\nas §4", "values": [
      {"molecule": "CCCc1ccc(OC(=O)c2ccco2)cc1", "note": "[STE1, 4-propylphenyl 2-furoate]", "activity identified during HTS of proteolyzed αβγ-ENaC": "potentiator of proteolyzed αβγ-ENaC"}
    ]},
    {"system": "salty taste of sodium chloride", "experiment": "human sensory taste testing, pairwise comparisons", "type": "in vivo", "conditions": "pairwise comparisons of 45 mM NaCl+15 pg STE1/mL", "description": "The sensory studies used pairwise comparisons of 45 mM NaCl+15 pg STE1/mL using a human sensory taste testing protocol approved by an institutional review board, 13 out of 15 participants selected the sample containing STE1 as more salty.", "values": [
      {"molecule": "CCCc1ccc(OC(=O)c2ccco2)cc1", "note": "[STE1, 4-propylphenyl 2-furoate]", "participants who selected the sample containing STE1 as more salty": "13 out of 15"}
    ]}
  ]
}
